Usually pIC50 stands for the negative decadic logarithm of the IC50, by convention in mol/L. A higher pIC50 goes with a small IC50.

The record followed here is US20240376085A1 (Janssen Pharmaceutica NV, priority 2021, published 2024).

One assay deals with T1, IL-17A : IL-17RA binding (Homo sapiens, UniProt Q16552, K93Q).
T1 construct: Name: IL-17A-Flag
In words: IL-17A(FLAG-tagged):IL-17RA(His-tagged) binding disruption Eu-HTRF assay, Protocol 1. As to conditions: FLAG-IL-17A 2.5 nM at 2x final concentration; average if tested more than once. The procedure, abridged:
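IC50 came from a one-site competition fit of the acceptor/donor (665/620 nm) HTRF ratio. His-tagged IL-17RA, Eu-anti-FLAG and D2-anti-His were added after a 1 h rt compound preincubation with FLAG-tagged IL-17A dimer in PBS/0.01% Triton X-100, followed by 2 h at rt before reading.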
(In general: TR-FRET usually uses a lanthanide donor and a delayed reading to cut background.)

The subject of assay [1] is IL-17A-induced G-CSF production in human normal keratinocyte (NHK). Description: NHK assay: IL-17A-induced G-CSF production in normal human keratinocytes. As to conditions: 24 h, IL-17A 5 ng/mL, average if tested more than once. The assay is classed as cell-based. The procedure, abridged: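 Compound titrations are first mixed with recombinant human IL-17A for 1 h at room temperature. The mixture goes onto adult normal human keratinocytes (final IL-17A 5 ng/mL, 5% FBS, 0.2% DMSO) for 24 h at 37 °C. Secreted G-CSF is then measured by HTRF and IC50 fitted.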

pIC50: −log10 of the molar value. Bounds are passed on as bounds.

T1 sequence (Q16552 with tags, fused parts or gaps K93Q): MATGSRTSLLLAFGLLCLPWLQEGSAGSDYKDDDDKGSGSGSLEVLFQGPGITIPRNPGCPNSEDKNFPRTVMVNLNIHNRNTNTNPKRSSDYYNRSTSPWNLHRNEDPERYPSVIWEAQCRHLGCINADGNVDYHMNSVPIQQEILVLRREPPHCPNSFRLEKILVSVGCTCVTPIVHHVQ

For the molecule `Cn1nccc1C(=O)N[C@H](c1nc2cc(C(CC3CCC3)NC(=O)CCC(F)(F)F)ccc2[nH]1)C1CCC(F)(F)CC1` (single isomer, unassigned) [Example 46, N—((S)-(5-((S*)-2-Cyclobutyl-1-(4,4,4-trifluorobutanamido)ethyl)-1H-benzo[d]imidazol-2-yl)(4,4-difluorocyclohexyl)methyl)-1-methyl-1H-pyrazole-5-carboxamide], the pIC50 on IL-17A : IL-17RA binding was less than 7.00; in assay [1] (Homo sapiens, Keratinocyte), less than 7.00.
As for `C[C@@H](NC(=O)CCC(F)(F)F)c1ccc2[nH]c([C@@H](NC(=O)c3cnnn3CC3CC3(F)F)C3CCC(F)(F)CC3)nc2c1` (stereo partly drawn) [Example 80, N—((S)-(4,4-Difluorocyclohexyl)(5-((R)-1-(4,4,4-trifluorobutanamido)ethyl)-1H-benzo[d]imidazol-2-yl)methyl)-1-((2,2-difluorocyclopropyl)methyl)-1H-1,2,3-triazole-5-carboxamide], the negative logarithm of the IC50 (pIC50) at IL-17A : IL-17RA binding is less than 7.00; in assay [1] (Homo sapiens, Keratinocyte) it was 7.00 to 7.30.
On the same counts, the results for `CC(C)n1nccc1C(=O)N[C@H](c1nc2ccc([C@H](NC(=O)CC3CC(F)(F)C3)C3CC3)cc2[nH]1)[C@@H]1CCCCO1` (relative stereo) [Example 250, N—((R*)-(6-((R)-Cyclopropyl(2-(3,3-difluorocyclobutyl)acetamido)methyl)-1H-benzo[d]imidazol-2-yl)((S*)-tetrahydro-2H-pyran-2-yl)methyl)-1-isopropyl-1H-pyrazole-5-carboxamide] are 7.00 to 7.30 and 7.00 to 7.30.
In the same order, the values of `C[C@@H](NC(=O)CCC(F)(F)F)c1ccc2[nH]c([C@@H](NC(=O)c3cnn(CC4CC4(F)F)n3)C3CCC(F)(F)CC3)nc2c1` (stereo partly drawn) [Example 81, N—((S)-(4,4-Difluorocyclohexyl)(5-((R)-1-(4,4,4-trifluorobutanamido)ethyl)-1H-benzo[d]imidazol-2-yl)methyl)-2-((2,2-difluorocyclopropyl)methyl)-2H-1,2,3-triazole-4-carboxamide] are less than 7.00 and less than 7.00.
On the same counts, the results for `Cc1nonc1C(=O)N[C@H](c1nc2ccc([C@H](NC(=O)CC3CC(F)(F)C3)C3CC3)cc2[nH]1)C1CCC(F)(F)CO1` (single isomer, unassigned) [Example 260, N—((R)-(6-((R)-Cyclopropyl(2-(3,3-difluorocyclobutyl)acetamido)methyl)-1H-benzo[d]imidazol-2-yl)((S*)-5,5-difluorotetrahydro-2H-pyran-2-yl)methyl)-4-methyl-1,2,5-oxadiazole-3-carboxamide] are less than 7.00 and less than 7.00.
Take `CC(C)n1ncc(F)c1C(=O)NC(CC(C)(C)C(F)(F)F)c1nc2cc([C@@H](C)NC(=O)CCC(F)(F)F)ccc2[nH]1` (single isomer, unassigned) [Example 194, 4-Fluoro-1-isopropyl-N—((S*)-4,4,4-trifluoro-3,3-dimethyl-1-(5-((R)-1-(4,4,4-trifluorobutanamido)ethyl)-1H-benzo[d]imidazol-2-yl)butyl)-1H-pyrazole-5-carboxamide]: the pIC50 was less than 7.00 on IL-17A : IL-17RA binding and less than 7.00 in assay [1] (Homo sapiens, Keratinocyte).
As to `CC(C)n1nccc1C(=O)N[C@H](c1nc2ccc([C@H](NC(=O)CC3CC(F)(F)C3)C3CC3)cc2[nH]1)[C@H]1C[C@@H]2[C@H](C1)C2(F)F` [Example 241, N—((S)-(6-((R)-Cyclopropyl(2-(3,3-difluorocyclobutyl)acetamido)methyl)-1H-benzo[d]imidazol-2-yl)((1R,3r,5S)-6,6-difluorobicyclo[3.1.0]hexan-3-yl)methyl)-1-isopropyl-1H-pyrazole-5-carboxamide], the pIC50 at IL-17A : IL-17RA binding is 7.00 to 7.30; in assay [1] (Homo sapiens, Keratinocyte) it was greater than 7.30.
In the same order, the values of `CC(C)n1nccc1C(=O)NC(COC(C)(C)C(C)(F)F)c1nc2ccc([C@H](NC(=O)CC3CC(F)(F)C3)C3CC3)cc2[nH]1` (single isomer, unassigned) [Example 149, N—((R*)-1-(6-((R)-Cyclopropyl(2-(3,3-difluorocyclobutyl)acetamido)methyl)-1H-benzo[d]imidazol-2-yl)-2-((3,3-difluoro-2-methylbutan-2-yl)oxy)ethyl)-1-isopropyl-1H-pyrazole-5-carboxamide] are less than 7.00 and greater than 7.30.
In the case of `C[C@@H](NC(=O)CCC(F)(F)F)c1ccc2[nH]c([C@@H](NC(=O)C3CC3)C3CCC(F)(F)CC3)nc2c1` [Example 94, N—((S)-(4,4-Difluorocyclohexyl)(5-((R)-1-(4,4,4-trifluorobutanamido)ethyl)-1H-benzo[d]imidazol-2-yl)methyl)cyclopropanecarboxamide], the negative logarithm of the IC50 (pIC50) is less than 7.00 at IL-17A : IL-17RA binding and less than 7.00 in assay [1] (Homo sapiens, Keratinocyte).
Regarding `C[C@@H](NC(=O)CCC(F)(F)F)c1ccc2nc([C@@H](NC(=O)c3cnn(CC4CCC4)n3)C3CCC(F)(F)CC3)[nH]c2c1` [Example 62, 2-(Cyclobutylmethyl)-N—((S)-(4,4-difluorocyclohexyl)(6-((R)-1-(4,4,4-trifluorobutanamido)ethyl)-1H-benzo[d]imidazol-2-yl)methyl)-2H-1,2,3-triazole-4-carboxamide], the negative logarithm of the IC50 (pIC50) at IL-17A : IL-17RA binding is less than 7.00; in assay [1] (Homo sapiens, Keratinocyte), less than 7.00.
For `C[C@@H](NC(=O)CCC(F)(F)F)c1ccc2[nH]c([C@@H](NC(=O)c3cn(CC4CC(F)(F)C4(F)F)nn3)C3CCC(F)(F)CC3)nc2c1` (stereo partly drawn) [Example 84, N—((S)-(4,4-Difluorocyclohexyl)(5-((R)-1-(4,4,4-trifluorobutanamido)ethyl)-1H-benzo[d]imidazol-2-yl)methyl)-1-((2,2,3,3-tetrafluorocyclobutyl)methyl)-1H-1,2,3-triazole-4-carboxamide], the pIC50 at IL-17A : IL-17RA binding was less than 7.00; in assay [1] (Homo sapiens, Keratinocyte), less than 7.00.
Regarding `CC(CC(=O)N[C@H](C)c1ccc2nc([C@@H](NC(=O)c3cc(F)ccc3F)C3CCC(F)(F)CC3)[nH]c2c1)C(F)(F)F` (single isomer, unassigned) [Example 140, N—((S)-(4,4-Difluorocyclohexyl)(6-((R)-1-((S*)-4,4,4-trifluoro-3-methylbutanamido)ethyl)-1H-benzo[d]imidazol-2-yl)methyl)-2,5-difluorobenzamide], the pIC50 (at IL-17A : IL-17RA binding; in assay [1]) was less than 7.00 in each case.
As to `C[C@@H](NC(=O)CCC(F)(F)F)c1ccc2nc([C@@H](NC(=O)c3cnnn3CCC(F)F)C3CCC(F)(F)CC3)[nH]c2c1` [Example 74, N—((S)-(4,4-Difluorocyclohexyl)(6-((R)-1-(4,4,4-trifluorobutanamido)ethyl)-1H-benzo[d]imidazol-2-yl)methyl)-1-(3,3-difluoropropyl)-1H-1,2,3-triazole-5-carboxamide], the negative logarithm of the IC50 (pIC50) at IL-17A : IL-17RA binding was less than 7.00; in assay [1] (Homo sapiens, Keratinocyte), less than 7.00.
For the molecule `CC(NC(=O)CCC(F)(F)F)c1ccc2nc([C@H](CC(C)(C)C(F)(F)F)NC(=O)c3ccnn3C(C)C)[nH]c2c1` (single isomer, unassigned) [Example 232, 1-Isopropyl-N—((S)-4,4,4-trifluoro-3,3-dimethyl-1-(6-((R*)-1-(4,4,4-trifluorobutanamido)ethyl)-1H-benzo[d]imidazol-2-yl)butyl)-1H-pyrazole-5-carboxamide], the figures for the negative logarithm of the IC50 (pIC50) (at IL-17A : IL-17RA binding; in assay [1]) were less than 7.00 and 7.00 to 7.30, respectively.
In the case of `C[C@@H](NC(=O)CCC(F)(F)F)c1ccc2[nH]c([C@@H](NC(=O)c3cnn(CCC(F)(F)F)n3)C3CCC(F)(F)CC3)nc2c1` [Example 3, N—[(S)-(4,4-Difluorocyclohexyl)-[6-[(1R)-1-(4,4,4-trifluorobutanoylamino)ethyl]-1H-benzimidazol-2-yl]methyl]-2-(3,3,3-trifluoropropyl)triazole-4-carboxamide], the pIC50 at IL-17A : IL-17RA binding was less than 7.00; in assay [1] (Homo sapiens, Keratinocyte) it was less than 7.00.
In the case of `CC(C)n1nccc1C(=O)N[C@@H](CC1CC2(C1)CC(F)(F)C2)c1nc2ccc([C@H](NC(=O)CC3CC(F)(F)C3)C3CC3)cc2[nH]1` (stereo partly drawn) [Example 148, N—((S)-1-(6-((R)-Cyclopropyl(2-(3,3-difluorocyclobutyl)acetamido)methyl)-1H-benzo[d]imidazol-2-yl)-2-(6,6-difluorospiro[3.3]heptan-2-yl)ethyl)-1-isopropyl-1H-pyrazole-5-carboxamide], the pIC50 at IL-17A : IL-17RA binding was less than 7.00; in assay [1] (Homo sapiens, Keratinocyte), less than 7.00.
As for `C[C@@H](NC(=O)CCC(F)(F)F)c1ccc2[nH]c([C@@H](NC(=O)c3cnn(CCC(F)(F)F)c3)C3CCC(F)(F)CC3)nc2c1` [Example 1, N—[(S)-(4,4-Difluorocyclohexyl)-[6-[(1R)-1-(4,4,4-trifluorobutanoylamino)ethyl]-1H-benzimidazol-2-yl]methyl]-1-(3,3,3-trifluoropropyl)pyrazole-4-carboxamide], the pIC50 on IL-17A : IL-17RA binding is less than 7.00; in assay [1] (Homo sapiens, Keratinocyte) it was less than 7.00.
Consider `CC(C)n1nccc1C(=O)N[C@H](c1nc2ccc([C@H](NC(=O)CC3CC(F)(F)C3)C3CC3)cc2[nH]1)C1CCC(F)(F)CO1` (single isomer, unassigned) [Example 261, N—((R)-(6-((R)-Cyclopropyl(2-(3,3-difluorocyclobutyl)acetamido)methyl)-1H-benzo[d]imidazol-2-yl)((S*)-5,5-difluorotetrahydro-2H-pyran-2-yl)methyl)-1-isopropyl-1H-pyrazole-5-carboxamide], for which the pIC50 at IL-17A : IL-17RA binding is less than 7.00; in assay [1] (Homo sapiens, Keratinocyte), 7.00 to 7.30.
